We go through 2 compounds from paper PMC11773759, “Bioactivity-guided isolation and molecular modeling of the anti-inflammatory constituents from the leaves of Duranta erecta Linn” (BMC Complementary Medicine and Therapies, 2025).

For assay [1], the target named is 5-LOX enzyme. Put plainly: 5-Lipoxygenase (5-LOX) inhibitory assay (colorimetric LOX inhibitor screening kit). The following applies: isolated compounds. The assay is classed as biochemical. The method, then:
The LOX inhibitor screening assay was carried out colorimetrically, as per the manufacturer’s instructions (Cayman Chemical Company, MI, USA). […] To initiate the enzymatic reaction, introduce 10 µL of 1 mM arachidonic acid and shake the plate for 5 min.
To halt the enzymatic process and promote colour formation, 100 µL of chromogen from the test kit was used. The plate was then shaken for a further 5 min before the absorbance at 490 nm was measured with a microplate reader.

In assay [2] the target is T1, ovine COX-1 (Ovis aries, UniProt P05979).
T1 sequence (P05979 25-600): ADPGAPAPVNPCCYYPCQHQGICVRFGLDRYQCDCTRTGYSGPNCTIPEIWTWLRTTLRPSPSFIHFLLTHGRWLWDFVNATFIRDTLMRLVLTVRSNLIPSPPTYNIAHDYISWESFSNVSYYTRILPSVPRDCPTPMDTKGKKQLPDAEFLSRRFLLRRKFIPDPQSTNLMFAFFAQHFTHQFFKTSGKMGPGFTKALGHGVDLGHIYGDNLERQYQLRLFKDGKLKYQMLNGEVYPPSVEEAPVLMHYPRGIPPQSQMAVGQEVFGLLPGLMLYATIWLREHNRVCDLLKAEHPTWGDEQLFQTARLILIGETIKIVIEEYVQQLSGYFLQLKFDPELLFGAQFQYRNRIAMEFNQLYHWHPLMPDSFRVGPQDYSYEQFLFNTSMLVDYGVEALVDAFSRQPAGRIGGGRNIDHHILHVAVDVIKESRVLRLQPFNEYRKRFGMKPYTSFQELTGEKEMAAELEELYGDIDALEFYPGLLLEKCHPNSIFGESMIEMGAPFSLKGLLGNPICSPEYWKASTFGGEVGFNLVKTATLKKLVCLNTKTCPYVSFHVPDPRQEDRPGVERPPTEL
The assay is described as follows: COX-1 inhibition assay (colorimetric COX (ovine) inhibitor screening kit).
Experimental: COX-1 and 2 inhibition assay kits (K548-100 and K547-100) were purchased from Biovision Inc., California, USA. […] The absorbances were measured using a Tecan microplate reader (Infinite F50, Switzerland). […] Sigma Chemical Company (CA, USA) supplied the reagents utilized in biological experiments.
To prepare a stock concentration of 5 mg/mL, the extract and its constituent fractions were dissolved in 100% DMSO. In triplicate, samples were serially diluted from 0.1 µg/mL to 100 µg/mL. The inhibitory activity of COX was determined using a colorimetric approach, as previously described [13], and using the Cayman colorimetric COX (ovine) inhibitor screening test kit (Cayman Chemical Company, MI, USA) according to the manufacturer’s instructions. […] After initiating the reaction with 10 µL of 10 mM arachidonic acid, the mixture was incubated at 37 °C for another 2 min. To stop the reaction, 50 µL of 1 N HCl and saturated stannous chloride were added. The assays were run using 100 U of ovine COX-1 and COX-2. […] Results were presented as IC50 (µg/mL) [13].

Assay [3] relates to soybean 5-LOX. Set-up: method as in doi:10.1007/s00044-016-1677-9. The following applies: in vitro; cited from earlier work.
In assay [4] the test system is lipoxygenase. The arrangement: method as in PMID 26134247. The following applies: dose of 0.5 mM; cited from earlier work.
Assay [5] concerns carrageenan-induced rat paw edema. Set-up: method as in PMID 12241987. As to conditions: cited from earlier work.

Broadly, the IC50 is the concentration that inhibits the measured activity by half. Consider `COC(=O)C1=COC(OC2OC(CO)C(O)C(O)C2O)C2C1(O)CC(OC(=O)C=Cc1ccc(OC)c(O)c1)C2(C)O` (stereo not shown) [Compound 1, duranterectoside A], for which the IC50 in assay [1] turned out to be 2.6 ± 0.1 µM; in assay [2], 7.3 ± 0.9 µM.

For the compound `COC(=O)C1=COC(OC2OC(CO)C(O)C(O)C2O)C2C1(O)CC(O)C2(C)O` (stereo not shown) [Compound 2, lamiide], the IC50 in assay [1] is 4.9 ± 0.4 µM; in assay [2], 8.5 ± 0.2 µM. For the same compound, the “suppression of soybean 5-LOX” value in assay [3] is on record as “suppresses”. Further, in assay [4], the inhibition of lipoxygenase entry was “moderate inhibition”. Further, the “anti-inflammatory effect in carrageenan-induced rat paw edema” value in assay [5] is “anti-inflammatory properties”.
